The values that follow come from ChEMBL document CHEMBL1201862, “PubChem BioAssay data set” (2004).

Structures are written as SMILES.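 Briefly, cells in 96-well plates were exposed to five compound concentrations for 48 h, and endpoints were estimated by linear interpolation. GI50 marks 50% less growth.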 Active and inactive are the calls of the source. No stated cut-off is given here; in the data, active = GI50 up to about 1.1 µM and inactive = higher.

Among the test systems are MDA-MB-231; NCI/ADR-RES; SF-295; LOX IMVI; RPMI-8226; A498; HOP-62; NCI-H460; LXFL 529; HOP-92; Malme-3M; KM12; A549; SN12C; TK-10; NCI-H226; COLO 205; HCT-15; HL-60; MDA-MB-435.
Experiment in all cases: inhibition of tumour cell growth, NCI panel, 48 h

On to `COc1ccc(C2=C(Cl)c3cc(OC)c(OC)cc3C2Cl)cc1` (stereo unspecified), for which the GI50 with MDA-MB-231 is 17.7 µM (inactive); in the experiment with NCI/ADR-RES, 12.7 µM (inactive); with SF-295 it was 15.4 µM (inactive); with LOX IMVI it was 12.2 µM (inactive); with RPMI-8226, 8.17 µM (inactive); with A498 it was 13.2 µM (inactive). The GI50 with HOP-62 is 17.8 µM (inactive); in the experiment with NCI-H460 it was 9.71 µM (inactive); with LXFL 529 it was 13.2 µM (inactive); in the experiment with HOP-92 it was 12.2 µM (inactive); in the experiment on Malme-3M, 19.1 µM (inactive); in the experiment on KM12 it was 13.6 µM (inactive). For the same compound, the GI50 with A549 is 15.4 µM (inactive); in the experiment on SN12C, 13.5 µM (inactive); in the experiment with TK-10 it was 19.7 µM (inactive); in the experiment on NCI-H226, 21.3 µM (inactive); in the experiment on COLO 205, 17.5 µM (inactive); in the experiment with HCT-15, 12.3 µM. The results for the GI50 in the experiment with HL-60 and in the experiment on MDA-MB-435 were 3.03 µM (inactive) and 12.3 µM (inactive), respectively.
For the compound `N/C(=N\O)N/N=C/c1ccc(O)c(O)c1`, the GI50 in the experiment with SF-295, in the experiment on LOX IMVI, in the experiment with RPMI-8226, in the experiment with A498, in the experiment on HOP-62 and with NCI-H460 was > 100 µM (inactive) in each case. The GI50 in the experiment with LXFL 529, in the experiment on HOP-92, in the experiment on Malme-3M, with KM12, in the experiment with A549 and in the experiment on SN12C was > 100 µM (inactive) in each case. The GI50 is > 100 µM (inactive) in the experiment with TK-10; > 100 µM (inactive) in the experiment on NCI-H226; > 100 µM (inactive) in the experiment on COLO 205; more than 100 µM in the experiment with HCT-15; > 100 µM (inactive) with HL-60.
For the compound `O=C(CCCNC(=O)OCc1ccccc1)OCc1ccc2c(c1)C(=O)c1ccccc1C2=O`, the GI50 in the experiment on SF-295 is 11.3 µM (inactive); in the experiment on LOX IMVI, > 100 µM (inactive); in the experiment with RPMI-8226, > 100 µM (inactive); in the experiment on A498, 27.2 µM (inactive); with HOP-62, 30.6 µM (inactive); in the experiment with NCI-H460 it was > 100 µM (inactive). In addition, the GI50 is > 100 µM (inactive) in the experiment on LXFL 529; 36.6 µM (inactive) in the experiment with HOP-92; > 100 µM (inactive) in the experiment with Malme-3M; > 100 µM (inactive) with KM12; > 100 µM (inactive) in the experiment with A549; > 10.2 µM (inactive) in the experiment with SN12C. Further, the GI50 with TK-10 is 34.8 µM (inactive); in the experiment on NCI-H226, 5.46 µM (inactive); in the experiment on COLO 205, > 7.6 µM (inactive); with HCT-15, more than 100 µM; with HL-60, > 100 µM (inactive).
On to `CCCCCCCCCCCCCCCC/C(C(=O)OC)=C(/O)C(=O)OCC`, for which the GI50 with SF-295, in the experiment on LOX IMVI, in the experiment with RPMI-8226, in the experiment with A498, with HOP-62 and in the experiment on NCI-H460 was > 100 µM (inactive) each time. In addition, the GI50 with LXFL 529 was > 100 µM (inactive); in the experiment on HOP-92, 38.9 µM (inactive); in the experiment on Malme-3M, > 100 µM (inactive); with KM12, > 100 µM (inactive); in the experiment on A549, > 100 µM (inactive); with SN12C, > 100 µM (inactive). Also, the GI50 is > 100 µM (inactive) in the experiment with TK-10; > 100 µM (inactive) in the experiment on NCI-H226; > 100 µM (inactive) in the experiment on COLO 205; more than 100 µM in the experiment with HCT-15; > 100 µM (inactive) in the experiment on HL-60.
